Measurements reported in US20240358692A1, “TREATMENT OF SCLERODERMA” (Aisa Pharma, Inc., priority 2023, published 2024).

Tested on: participants with SSc-RP
Experiment: SHAQ - Standard Disability Index
Assay type: in vivo, human
Parameters: key to SHAQ Standard Disability Index, In-Clinic Visit (Day 12), Mean / SHAQ Standard Disability Index, In-Clinic Visit (Day 12), Median / SHAQ Standard Disability Index, Day 12, Mean / SHAQ Standard Disability Index, Day 12, Median: 0 = without any difficulty to 3 = unable to do
Details: for % change in Standard Disability Index: SHAQ, mITT Part A
Excerpt: The standard, validated, patient reported outcome measures tool for SSc patients, the Scleroderma Health Assessment Questionnaire (SHAQ), will be used to assess the participant qualify of life. Details are attached in the Appendix. The participant quality of life will be scored, and a disability index calculated for each questionnaire completed by the patient at Screening and each in-clinic visit. The absolute change in participant quality of life from baseline to the end of each dosing period will be calculated similar to frequency data as before.
The SHAQ is used to calculate a Disability Index to assess the participant qualify of life. The eight categories assessed by the Disability Index are 1) dressing and grooming, 2) arising, 3) eating, 4) walking, 5) hygiene, 6) reach, 7) grip, and 8) common daily activities. For each of these categories, patients report the amount of difficulty they have in performing two or three specific activities.
There are four possible responses for the Disability Index questions: • Without any difficulty=0 • With some difficulty=1 • With much difficulty=2 • Unable to do=3 • The highest score reported by the patient for any component question of the eight categories determines the score for that category. • If a component question is left blank or the response is too ambiguous to assign a score, then the score for that category is determined by the remaining completed question(s). • If all component questions are blank or if more than one answer is given, then follow up with the respondent is required. • If the respondent's mark is between the response columns, then move it to the closest one. If it's directly between the two, move it to the higher one.
This question results in a new set of category scores that are computed by adjusting the score for each category, if necessary, based on the patient's use of an aid or device or assistance for that category. If either devices and/or help from another person are checked for a category, the score is set to “2”, unless the score is already “3” (i.e., scores of “0” or “1” are increased to “2”). For example, if the highest score for the dressing category is “1”, and the patient says they use a device for dressing, the computed category score would be “2”. The sum of the computed categories scores is then calculated and divided by the number of categories answered. This gives a score in the 0 to 3 range.

[1] = Any Cilnidipine (N = 17), Day 12, PP Population, Part A
[2] = Cilnidipine 10 mg, SSc patients, PP, Part A
[3] = Cilnidipine 20 mg (N = 3), Day 12, Patients with Diagnosis of SSc, Modified ITT Population - Part A
[4] = Cilnidipine 20 mg, SSc patients, PP, Part A
[5] = Pooled Cilnidipine 20 mg and Cilnidipine 20 mg + Tadalafil 5 mg (N = 8), Day 12, PP Population, Part A
[6] = Pooled Cilnidipine (N = 8), Day 12, PP Population, Part A
[7] = pooled Cilnidipine 10 mg and Cilnidipine 10 mg + Tadalafil 5 mg

**Q.** Which results are given for COCCOC(=O)C1=C(C)NC(C)=C(C(=O)OC/C=C/c2ccccc2)C1c1cccc([N+](=O)[O-])c1 (stereo not drawn) [Cilnidipine]?
**A.** SHAQ Standard Disability Index, Change from Baseline, Mean (SD) [1]: −0.041 (0.1990); SHAQ Standard Disability Index, Change from Baseline, Median [1]: 0.000; SHAQ Standard Disability Index, Percent Change from Baseline, Median [1]: 0.00%; SHAQ Standard Disability Index, In-Clinic Visit (Day 12), Median (Cilnidipine 10 mg (N = 3), Patients with Diagnosis of SSc, Modified ITT Population - Part A): 1.125; SHAQ Standard Disability Index, Change from Baseline, Max [2]: 0.00; SHAQ Standard Disability Index, Change from Baseline, Min [2]: 0.00,; SHAQ Standard Disability Index, Change from Baseline, Q1 [2]: 0.000,; SHAQ Standard Disability Index, Change from Baseline, Q3 [2]: 0.000; SHAQ Standard Disability Index, Day 12, Max [2]: 1.50; SHAQ Standard Disability Index, Day 12, Mean [2]: 0.656; SHAQ Standard Disability Index, Day 12, Median [2]: 0.563; SHAQ Standard Disability Index, Day 12, Min [2]: 0.00,; SHAQ Standard Disability Index, Day 12, Q1 [2]: 0.000,; SHAQ Standard Disability Index, Day 12, Q3 [2]: 1.313; SHAQ Standard Disability Index, Percent Change from Baseline, Max [2]: 0.0; SHAQ Standard Disability Index, Percent Change from Baseline, Min [2]: 0.0,; SHAQ Standard Disability Index, Percent Change from Baseline, Q1 [2]: 0.00,; SHAQ Standard Disability Index, Percent Change from Baseline, Q3 [2]: 0.00; SHAQ Standard Disability Index, Change from Baseline, Mean [3]: −0.125; SHAQ Standard Disability Index, Change from Baseline, Median [3]: −0.125; SHAQ Standard Disability Index, Percent Change from Baseline, Mean [3]: −50.00%; SHAQ Standard Disability Index, Percent Change from Baseline, Median [3]: −50.00%; SHAQ Standard Disability Index, In-Clinic Visit (Day 12), Mean (Cilnidipine 20 mg (N = 3), Patients with Diagnosis of SSc, Modified ITT Population - Part A): 0.125; % change in Standard Disability Index (Cilnidipine 20 mg (n = 3)): −50%; SHAQ Standard Disability Index, Change from Baseline, Max [4]: 0.13; SHAQ Standard Disability Index, Change from Baseline, Mean [4]: −0.063; SHAQ Standard Disability Index, Change from Baseline, Median [4]: −0.063; SHAQ Standard Disability Index, Change from Baseline, Min [4]: −0.25,; SHAQ Standard Disability Index, Change from Baseline, Q1 [4]: −0.188,; SHAQ Standard Disability Index, Change from Baseline, Q3 [4]: 0.063; SHAQ Standard Disability Index, Day 12, Max [4]: 0.75; SHAQ Standard Disability Index, Day 12, Mean [4]: 0.281; SHAQ Standard Disability Index, Day 12, Median [4]: 0.188; SHAQ Standard Disability Index, Day 12, Min [4]: 0.00,; SHAQ Standard Disability Index, Day 12, Q1 [4]: 0.063,; SHAQ Standard Disability Index, Day 12, Q3 [4]: 0.500; SHAQ Standard Disability Index, Percent Change from Baseline, Max [4]: 20.0; SHAQ Standard Disability Index, Percent Change from Baseline, Mean [4]: −26.67; SHAQ Standard Disability Index, Percent Change from Baseline, Min [4]: −66.7,; SHAQ Standard Disability Index, Percent Change from Baseline, Q1 [4]: −66.67,; SHAQ Standard Disability Index, Percent Change from Baseline, Q3 [4]: 20.00; SHAQ Standard Disability Index, Change from Baseline, Mean [5]: −0.065; SHAQ Standard Disability Index, Change from Baseline, Median [5]: 0.000; SHAQ Standard Disability Index, Change from Baseline, Mean (SD) [6]: −0.031 (0.1108); SHAQ Standard Disability Index, In-Clinic Visit (Day 12), Mean (SD) [6]: 0.469 (0.5853); SHAQ Standard Disability Index, Percent Change from Baseline, Mean (SD) [6]: −16.00 (34.189) %; % change in Standard Disability Index (Pooled Cilnidipine (n = 7)): −25%; % Δ from baseline, standard disability mean (Pooled cilnidipine (n=4)): −25%; Standard Disability Index Change from Baseline Max [7]: 0.38; Standard Disability Index Change from Baseline Mean [7]: −0.021; Standard Disability Index Change from Baseline Median [7]: 0.000
